Strand notation (5' to 3'): a small letter for the sugar, then the base; units joined by * are phosphorothioate-linked, units joined directly phosphodiester-linked; [ ] holds rarer units or linkages, { } end groups; capitals alone tell only the bases. [ms] = mesyl phosphoramidate linkage; e = 2'-O-(2-methoxyethyl) (MOE); k = constrained ethyl (cEt); [5mC] = 5-methylcytosine; d = 2'-deoxy (DNA)

The test system of the data set is human APOE RNA. In words: Dose-dependent inhibition of human APOE RNA in HepG2 cells, electroporation, 50,000 cells per well, RT-PCR normalized to GAPDH (Example 4, Tables 8-10). It counts as cell-based. Conditions: HepG2, electroporation. On the procedure:
Modified oligonucleotides selected from the examples above were tested at various doses in HepG2 cells. The modified oligonucleotides were tested in a series of experiments that had the same culture conditions. Each experiment is identified in separate tables below.
HepG2 cells plated at a density of 50,000 cells per well were treated by electroporation with various concentrations of modified oligonucleotide as specified in the tables below. […] APOE RNA levels were measured using the human primer probe set RTS3073 (forward sequence […], designated herein as SEQ ID NO: 7; reverse sequence CCATCAGCGCCCTCAGTT, designated herein as SEQ ID NO: 8; probe sequence […], designated herein as SEQ ID NO:9). APOE RNA levels were normalized to human GAPDH. […] Results are presented as percent APOE RNA, relative to the amount of APOE RNA in untreated control cells (UTC).

“1757566 (eA*e[5mC]eTkTkG*dG*dT*dG*dA*dA*dT*d[5mC]*dT*dT*dT*eAeTeT*eA*eA; antisense) [Compound 1757566]”: the “APOE RNA (% UTC)” value came out at 82 % UTC (5 nM, 16-hour treatment); 87 % UTC (13 nM, 16-hour treatment); 85 % UTC (33 nM, 16-hour treatment); 73 % UTC (82 nM, 16-hour treatment); 77 % UTC (205 nM, 16-hour treatment); 49 % UTC (512 nM, 16-hour treatment). Further, the “APOE RNA (% UTC)” value by setting is: (1,280 nM, 16-hour treatment) 31 % UTC; (3,200 nM, 16-hour treatment) 22 % UTC; (8,000 nM, 16-hour treatment) 17 % UTC; (20,000 nM, 16-hour treatment) 21 % UTC. The midpoint of inhibition (16-hour treatment), the IC50, lay at 0.55 µM.
With “1746785 (k[5mC]*kT*dT[ms]kG*dG[ms]dT[ms]dG[ms]dA[ms]dA[ms]dT*d[5mC]*dT*dT*dT*dA[ms]dT*kT*kA*dA[ms]kA; antisense) [Compound 1746785]”, the “APOE RNA (% UTC)” value runs as follows: (5 nM, 24-hour treatment) 90 % UTC; (13 nM, 24-hour treatment) 93 % UTC; (33 nM, 24-hour treatment) 97 % UTC; (82 nM, 24-hour treatment) 84 % UTC; (205 nM, 24-hour treatment) 83 % UTC; (512 nM, 24-hour treatment) 53 % UTC. Besides, the “APOE RNA (% UTC)” value runs as follows: (1,280 nM, 24-hour treatment) 48 % UTC; (3,200 nM, 24-hour treatment) 29 % UTC; (8,000 nM, 24-hour treatment) 8 % UTC; (20,000 nM, 24-hour treatment) 35 % UTC. Under “24-hour treatment”, the IC50 (in general, the point on the concentration scale where inhibition reaches its midpoint) was 1.04 µM.
For “1757557: mixed MOE/cEt gapmer TTGGTGAATCTTTATTAA, sugar eeeeeddddddddeekke, linkages soossssssssssooss (eT*eTeGeG*eT*dG*dA*dA*dT*d[5mC]*dT*dT*dT*eAeTkT*kA*eA) [compound 1757557]”, the “APOE RNA (% UTC)” value runs as follows: (5 nM, 16-hour treatment) 79 % UTC; (13 nM, 16-hour treatment) 88 % UTC; (33 nM, 16-hour treatment) 89 % UTC; (82 nM, 16-hour treatment) 88 % UTC; (205 nM, 16-hour treatment) 86 % UTC; (512 nM, 16-hour treatment) 89 % UTC. Also, the “APOE RNA (% UTC)” value by setting is: (1,280 nM, 16-hour treatment) 94 % UTC; (3,200 nM, 16-hour treatment) 59 % UTC; (8,000 nM, 16-hour treatment) 36 % UTC; (20,000 nM, 16-hour treatment) 7 % UTC. The midpoint of inhibition (16-hour treatment), the IC50, lay at 4.68 µM.
With “1746813 (k[5mC]*dT[ms]dT[ms]kG*dG[ms]kT*dG[ms]dA[ms]dA[ms]dT*d[5mC]*dT*dT*dT*dA[ms]dT*dT[ms]kA*kA*kA; antisense) [Compound 1746813]”, the “APOE RNA (% UTC)” value turned out to be 137 % UTC (5 nM, 24-hour treatment); 117 % UTC (13 nM, 24-hour treatment); 119 % UTC (33 nM, 24-hour treatment); 101 % UTC (82 nM, 24-hour treatment); 100 % UTC (205 nM, 24-hour treatment); 83 % UTC (512 nM, 24-hour treatment). Besides, the “APOE RNA (% UTC)” value is on record as 57 % UTC (1,280 nM, 24-hour treatment); 41 % UTC (3,200 nM, 24-hour treatment); 19 % UTC (8,000 nM, 24-hour treatment); 21 % UTC (20,000 nM, 24-hour treatment). For the same substance, where the note is “24-hour treatment”, the IC50 amounted to 2.25 µM.
On to “1766537 (eT*eTeGeGeT*dG[ms]dA[ms]dA[ms]dT*d[5mC]*dT*dT*dT[ms]dA*dT*kTkAeA*eA*e[5mC]; antisense) [Compound 1766537]”, for which the “APOE RNA (% UTC)” value (5 nM, 16-hour treatment) came to 95 % UTC; the “APOE RNA (% UTC)” value (13 nM, 16-hour treatment) was determined as 111 % UTC; the “APOE RNA (% UTC)” value (33 nM, 16-hour treatment) was determined as 108 % UTC; the “APOE RNA (% UTC)” value (82 nM, 16-hour treatment) was determined as 89 % UTC; the “APOE RNA (% UTC)” value (205 nM, 16-hour treatment) was 90 % UTC; the “APOE RNA (% UTC)” value (512 nM, 16-hour treatment) is 85 % UTC. Moreover, the “APOE RNA (% UTC)” value runs as follows: (1,280 nM, 16-hour treatment) 62 % UTC; (3,200 nM, 16-hour treatment) 36 % UTC; (8,000 nM, 16-hour treatment) 21 % UTC; (20,000 nM, 16-hour treatment) 5 % UTC. For the setting “16-hour treatment”, this substance returned an IC50 of 2.01 µM.
In the case of “1746791 (k[5mC]*dT[ms]dT[ms]kG*kG*dT[ms]dG[ms]dA[ms]dA[ms]dT*d[5mC]*dT*dT*dT*dA[ms]dT*kT*kA*dA[ms]kA; antisense) [Compound 1746791]”, the “APOE RNA (% UTC)” value is recorded as 88 % UTC (5 nM, 24-hour treatment); 104 % UTC (13 nM, 24-hour treatment); 93 % UTC (33 nM, 24-hour treatment); 88 % UTC (82 nM, 24-hour treatment); 80 % UTC (205 nM, 24-hour treatment); 62 % UTC (512 nM, 24-hour treatment). Further, the “APOE RNA (% UTC)” value (1,280 nM, 24-hour treatment) is 35 % UTC; the “APOE RNA (% UTC)” value (3,200 nM, 24-hour treatment) was 21 % UTC; the “APOE RNA (% UTC)” value (8,000 nM, 24-hour treatment) came out at 16 % UTC; the “APOE RNA (% UTC)” value (20,000 nM, 24-hour treatment) worked out at 21 % UTC. Besides, the IC50 (24-hour treatment) is 0.85 µM.
Regarding “1747053 (k[5mC]*dT[ms]dT[ms]kG*kG*kT*dG[ms]dA[ms]dA[ms]dT*d[5mC]*dT*dT*dT*dA[ms]dT*kT*dA[ms]dA[ms]kA; antisense) [Compound 1747053]”, the “APOE RNA (% UTC)” value by setting is: (5 nM, 24-hour treatment) 115 % UTC; (13 nM, 24-hour treatment) 131 % UTC; (33 nM, 24-hour treatment) 124 % UTC; (82 nM, 24-hour treatment) 107 % UTC; (205 nM, 24-hour treatment) 70 % UTC; (512 nM, 24-hour treatment) 49 % UTC. Besides, the “APOE RNA (% UTC)” value runs as follows: (1,280 nM, 24-hour treatment) 57 % UTC; (3,200 nM, 24-hour treatment) 39 % UTC; (8,000 nM, 24-hour treatment) 38 % UTC; (20,000 nM, 24-hour treatment) 32 % UTC. Under “24-hour treatment”, this substance returned an IC50 of 2.17 µM.
For the substance “1747052 (k[5mC]*dT[ms]kT*kG*dG[ms]kT*dG[ms]dA[ms]dA[ms]dT*d[5mC]*dT*dT*dT*dA[ms]dT*kT*dA[ms]dA[ms]kA; antisense) [Compound 1747052]”, the “APOE RNA (% UTC)” value reads like this: (5 nM, 24-hour treatment) 150 % UTC; (13 nM, 24-hour treatment) 113 % UTC; (33 nM, 24-hour treatment) 148 % UTC; (82 nM, 24-hour treatment) 127 % UTC; (205 nM, 24-hour treatment) 108 % UTC; (512 nM, 24-hour treatment) 79 % UTC. Further, the “APOE RNA (% UTC)” value by setting is: (1,280 nM, 24-hour treatment) 53 % UTC; (3,200 nM, 24-hour treatment) 46 % UTC; (8,000 nM, 24-hour treatment) 31 % UTC; (20,000 nM, 24-hour treatment) 19 % UTC. Further, for the setting “24-hour treatment”, it took 2.71 µM to reach half-maximal inhibition (IC50).
As for “1757569 (eA*e[5mC]eTkTkG*dG*dT*dG*dA*dA*dT*d[5mC]*dT*dT*dT*kAeTeT*eA*eA; antisense) [Compound 1757569]”, the “APOE RNA (% UTC)” value worked out at 101 % UTC (5 nM, 16-hour treatment); 91 % UTC (13 nM, 16-hour treatment); 82 % UTC (33 nM, 16-hour treatment); 81 % UTC (82 nM, 16-hour treatment); 60 % UTC (205 nM, 16-hour treatment); 38 % UTC (512 nM, 16-hour treatment). Besides, the “APOE RNA (% UTC)” value runs as follows: (1,280 nM, 16-hour treatment) 24 % UTC; (3,200 nM, 16-hour treatment) 24 % UTC; (8,000 nM, 16-hour treatment) 18 % UTC; (20,000 nM, 16-hour treatment) 18 % UTC. For the setting “16-hour treatment”, this substance came in with an IC50 of 0.39 µM.
Take “1747051 (k[5mC]*kT*dT[ms]kG*dG[ms]kT*dG[ms]dA[ms]dA[ms]dT*d[5mC]*dT*dT*dT*dA[ms]dT*kT*dA[ms]dA[ms]kA; antisense) [Compound 1747051]”: the “APOE RNA (% UTC)” value by setting is: (5 nM, 24-hour treatment) 111 % UTC; (13 nM, 24-hour treatment) 117 % UTC; (33 nM, 24-hour treatment) 152 % UTC; (82 nM, 24-hour treatment) 128 % UTC; (205 nM, 24-hour treatment) 111 % UTC; (512 nM, 24-hour treatment) 67 % UTC. The “APOE RNA (% UTC)” value (1,280 nM, 24-hour treatment) was 76 % UTC; the “APOE RNA (% UTC)” value (3,200 nM, 24-hour treatment) amounted to 42 % UTC; the “APOE RNA (% UTC)” value (8,000 nM, 24-hour treatment) was determined as 31 % UTC; the “APOE RNA (% UTC)” value (20,000 nM, 24-hour treatment) is 9 % UTC. Where the note is “24-hour treatment”, this substance had an IC50 of 2.9 µM.
Turning to “1746805 (k[5mC]*kT*dT[ms]kG*dG[ms]dT[ms]dG[ms]dA[ms]dA[ms]dT*d[5mC]*dT*dT*dT*dA[ms]dT*dT[ms]kA*kA*kA; antisense) [Compound 1746805]”, the “APOE RNA (% UTC)” value came to 95 % UTC (5 nM, 24-hour treatment); 109 % UTC (13 nM, 24-hour treatment); 93 % UTC (33 nM, 24-hour treatment); 94 % UTC (82 nM, 24-hour treatment); 65 % UTC (205 nM, 24-hour treatment); 75 % UTC (512 nM, 24-hour treatment). Also, the “APOE RNA (% UTC)” value runs as follows: (1,280 nM, 24-hour treatment) 41 % UTC; (3,200 nM, 24-hour treatment) 39 % UTC; (8,000 nM, 24-hour treatment) 29 % UTC; (20,000 nM, 24-hour treatment) 11 % UTC. Besides, inhibition (24-hour treatment) was half-maximal at 1.36 µM (IC50).
